Assay results as given in ChEMBL document CHEMBL1697731, “Cheminformatics analysis of assertions mined from literature that describe drug-induced liver injury in different species” (Chem Res Toxicol, 2010).

Experiments:
Hepatotoxicity [1] = assay: Literature-mined compound from Fourches et al multi-species drug-induced liver injury (DILI) dataset, effect in humans; settings: human
Hepatotoxicity [2] = assay: Literature-mined compound from Fourches et al multi-species drug-induced liver injury (DILI) dataset, effect in non-rodents
Hepatotoxicity [3] = assay: Literature-mined compound from Fourches et al multi-species drug-induced liver injury (DILI) dataset, effect in rodents; settings: rodentia

Row | Compound | Hepatotoxicity (Hepatotoxicity [1]) | Hepatotoxicity (Hepatotoxicity [2]) | Hepatotoxicity (Hepatotoxicity [3]) | Hepatotoxicity (Hepatotoxicity [1]; Liver) | Hepatotoxicity (Hepatotoxicity [2]; Liver) | Hepatotoxicity (Hepatotoxicity [3]; Liver)
1 | O=c1[nH]cc(F)c(=O)[nH]1 [FLUOROURACIL] | drug-induced liver injury reported | drug-induced liver injury reported | drug-induced liver injury reported |  |  | 
2 | CC(C(=O)O)c1ccc(-c2ccccc2)c(F)c1 (centres undefined) [FLURBIPROFEN] | no drug-induced liver injury reported | drug-induced liver injury reported | drug-induced liver injury reported |  |  | 
3 | CC(C)C(=O)Nc1ccc([N+](=O)[O-])c(C(F)(F)F)c1 [FLUTAMIDE] | drug-induced liver injury reported | no drug-induced liver injury reported | drug-induced liver injury reported |  |  | 
4 | CC(C)n1c(/C=C/C(O)CC(O)CC(=O)O)c(-c2ccc(F)cc2)c2ccccc21 (centres undefined) [FLUVASTATIN] |  |  |  | drug-induced liver injury reported | no drug-induced liver injury reported | drug-induced liver injury reported
5 | COCCCC/C(=N\OCCN)c1ccc(C(F)(F)F)cc1 [FLUVOXAMINE] | drug-induced liver injury reported | no drug-induced liver injury reported | drug-induced liver injury reported |  |  | 
6 | Nc1nc2ncc(CNc3ccc(C(=O)N[C@@H](CCC(=O)O)C(=O)O)cc3)nc2c(=O)[nH]1 [FOLIC ACID] | drug-induced liver injury reported | no drug-induced liver injury reported | drug-induced liver injury reported |  |  | 
7 | Cc1cn[nH]c1 [FOMEPIZOLE] | drug-induced liver injury reported | no drug-induced liver injury reported | drug-induced liver injury reported |  |  | 
8 | C=O [FORMALDEHYDE] |  |  |  | drug-induced liver injury reported | no drug-induced liver injury reported | drug-induced liver injury reported
9 | O=C([O-])P(=O)([O-])[O-].[Na+].[Na+].[Na+] [FOSCARNET SODIUM] | no drug-induced liver injury reported | no drug-induced liver injury reported | drug-induced liver injury reported |  |  | 
10 | C[C@@H]1O[C@@H]1P(=O)(O)O [FOSFOMYCIN] | drug-induced liver injury reported | no drug-induced liver injury reported | no drug-induced liver injury reported |  |  | 
11 | CCC(=O)O[C@@H](O[P@](=O)(CCCCc1ccccc1)CC(=O)N1C[C@H](C2CCCCC2)C[C@H]1C(=O)O)C(C)C [FOSINOPRIL] | drug-induced liver injury reported | no drug-induced liver injury reported | no drug-induced liver injury reported |  |  | 
12 | NC[C@@H]1O[C@H](O[C@H]2[C@@H](O)[C@H](O[C@@H]3[C@@H](O)[C@H](N)C[C@H](N)[C@H]3O[C@H]3O[C@H](CN)[C@@H](O)[C@H](O)[C@H]3N)O[C@@H]2CO)[C@H](N)[C@@H](O)[C@@H]1O [FRAMYCETIN] |  |  |  | no drug-induced liver injury reported | no drug-induced liver injury reported | drug-induced liver injury reported
13 | O=P(O)(O)OC[C@H]1O[C@@](O)(COP(=O)(O)O)[C@@H](O)[C@@H]1O [FRUCTOSE 1,6-DIPHOSPHATE] | drug-induced liver injury reported | no drug-induced liver injury reported | drug-induced liver injury reported |  |  | 
14 | O=C(CO)[C@@H](O)[C@H](O)[C@H](O)CO [FRUCTOSE] | drug-induced liver injury reported | drug-induced liver injury reported | drug-induced liver injury reported |  |  | 
15 | c1ccoc1 [FURAN] | no drug-induced liver injury reported | no drug-induced liver injury reported | drug-induced liver injury reported |  |  | 
16 | O=C1OCCN1/N=C/c1ccc([N+](=O)[O-])o1 [FURAZOLIDONE] | no drug-induced liver injury reported | no drug-induced liver injury reported | drug-induced liver injury reported |  |  | 
17 | CC(=O)O[C@H]1C[C@@]2(C)[C@@H](C[C@@H](O)[C@H]3[C@@]4(C)CC[C@@H](O)[C@@H](C)[C@@H]4CC[C@@]32C)/C1=C(\CCC=C(C)C)C(=O)O [FUSIDIC ACID] | drug-induced liver injury reported | no drug-induced liver injury reported | no drug-induced liver injury reported |  |  | 
18 | Nc1nc(O)c2ncn(COC(CO)CO)c2n1 [GANCICLOVIR] | drug-induced liver injury reported | no drug-induced liver injury reported | no drug-induced liver injury reported |  |  | 
19 | COc1c(N2CCNC(C)C2)c(F)cc2c(=O)c(C(=O)O)cn(C3CC3)c12 (centres undefined) [GATIFLOXACIN] | drug-induced liver injury reported | no drug-induced liver injury reported | no drug-induced liver injury reported |  |  | 

Row | Compound | Hepatotoxicity (Hepatotoxicity [1]) | Hepatotoxicity (Hepatotoxicity [2]) | Hepatotoxicity (Hepatotoxicity [3]) | Hepatotoxicity (Hepatotoxicity [1]; Liver) | Hepatotoxicity (Hepatotoxicity [2]; Liver) | Hepatotoxicity (Hepatotoxicity [3]; Liver)
20 | COc1cc2ncnc(Nc3ccc(F)c(Cl)c3)c2cc1OCCCN1CCOCC1 [GEFITINIB] | drug-induced liver injury reported | no drug-induced liver injury reported | drug-induced liver injury reported |  |  | 
21 | COC1=C2C[C@@H](C)C[C@H](OC)[C@H](O)[C@@H](C)/C=C(\C)[C@H](OC(N)=O)[C@@H](OC)/C=C\C=C(/C)C(=O)NC(=CC1=O)C2=O [GELDANAMYCIN] | drug-induced liver injury reported | no drug-induced liver injury reported | no drug-induced liver injury reported |  |  | 
22 | Cc1ccc(C)c(OCCCC(C)(C)C(=O)O)c1 [GEMFIBROZIL] | drug-induced liver injury reported | no drug-induced liver injury reported | drug-induced liver injury reported |  |  | 
23 | CN(C)c1ccc(C(=C2C=CC(=[N+](C)C)C=C2)c2ccc(N(C)C)cc2)cc1.[Cl-] [GENTIAN VIOLET] | no drug-induced liver injury reported | no drug-induced liver injury reported | drug-induced liver injury reported |  |  | 
24 | CC1(C)CC(=O)N(CCCCN2CCN(c3ncccn3)CC2)C(=O)C1 [GEPIRONE] | drug-induced liver injury reported | no drug-induced liver injury reported | no drug-induced liver injury reported |  |  | 
25 | C#C[C@]1(O)C=C[C@H]2[C@@H]3CCC4=CC(=O)CC[C@@H]4[C@H]3CC[C@@]21CC [GESTODENE] | drug-induced liver injury reported | no drug-induced liver injury reported | no drug-induced liver injury reported |  |  | 
26 | O=C(OCC(O)CO)c1ccccc1Nc1ccnc2cc(Cl)ccc12 (centres undefined) [GLAFENINE] |  |  |  | drug-induced liver injury reported | no drug-induced liver injury reported | no drug-induced liver injury reported
27 | Cc1ccc(S(=O)(=O)NC(=O)NN2CC3CCCC3C2)cc1 (centres undefined) [GLICLAZIDE] | drug-induced liver injury reported | no drug-induced liver injury reported | no drug-induced liver injury reported |  |  | 
28 | N[C@H]1C(O)O[C@H](CO)[C@@H](O)[C@@H]1O (some centres undefined) [GLUCOSAMINE] | no drug-induced liver injury reported | no drug-induced liver injury reported | drug-induced liver injury reported |  |  | 
29 | N[C@@H](CCC(=O)O)C(=O)O [GLUTAMIC ACID] | no drug-induced liver injury reported | no drug-induced liver injury reported | drug-induced liver injury reported |  |  | 
30 | NC(=O)CC[C@H](N)C(=O)O [GLUTAMINE] | drug-induced liver injury reported | drug-induced liver injury reported | drug-induced liver injury reported |  |  | 
31 | CCC1(c2ccccc2)CCC(=O)NC1=O (centres undefined) [GLUTETHIMIDE] | drug-induced liver injury reported | no drug-induced liver injury reported | no drug-induced liver injury reported |  |  | 
32 | COc1ccc(Cl)cc1C(=O)NCCc1ccc(S(=O)(=O)NC(=O)NC2CCCCC2)cc1 [GLYBURIDE] | drug-induced liver injury reported | no drug-induced liver injury reported | drug-induced liver injury reported |  |  | 
33 | OCC(O)CO [GLYCERIN] | drug-induced liver injury reported | drug-induced liver injury reported | drug-induced liver injury reported |  |  | 
34 | Cc1cc2c(C(C)C)c(O)c(O)c(C=O)c2c(O)c1-c1c(C)cc2c(C(C)C)c(O)c(O)c(C=O)c2c1O [GOSSYPOL] | drug-induced liver injury reported | no drug-induced liver injury reported | drug-induced liver injury reported |  |  | 
35 | COC1=CC(=O)C[C@@H](C)[C@]12Oc1c(Cl)c(OC)cc(OC)c1C2=O [GRISEOFULVIN] | drug-induced liver injury reported | no drug-induced liver injury reported | drug-induced liver injury reported |  |  | 
36 | Cc1ccc(C(C)C)cc2c(C)ccc1-2 [GUAIAZULEN] | no drug-induced liver injury reported | no drug-induced liver injury reported | drug-induced liver injury reported |  |  | 
37 | CC(=O)O.N=C(N)N/N=C/c1c(Cl)cccc1Cl [GUANABENZ ACETATE] | no drug-induced liver injury reported | no drug-induced liver injury reported | drug-induced liver injury reported |  |  | 
38 | Cl.N=C(N)N [GUANIDINE HYDROCHLORIDE] | drug-induced liver injury reported | no drug-induced liver injury reported | drug-induced liver injury reported |  |  | 
